US11684606B2, “Methods of treating generalized pustular psoriasis with an antagonist of CCR6 or CXCR2” (CHEMOCENTRYX, INC., priority 2018, dated 2023)
Entries after “also recorded” stand apart in the source; their conditions may differ.

Columns and labels:
mCCR4 = target: T1, mCCR4 (Mus musculus, UniProt P51680); assay: Chemotaxis of mCCR4-transfected BaF3 cells to mCCL22; format: cell-based; conditions: A2 value, unit not given
T1 construct: expressed in transfected cells; host or cells: BaF3 cells (from the earlier reading's assay name)
T1 sequence (P51680 1-360): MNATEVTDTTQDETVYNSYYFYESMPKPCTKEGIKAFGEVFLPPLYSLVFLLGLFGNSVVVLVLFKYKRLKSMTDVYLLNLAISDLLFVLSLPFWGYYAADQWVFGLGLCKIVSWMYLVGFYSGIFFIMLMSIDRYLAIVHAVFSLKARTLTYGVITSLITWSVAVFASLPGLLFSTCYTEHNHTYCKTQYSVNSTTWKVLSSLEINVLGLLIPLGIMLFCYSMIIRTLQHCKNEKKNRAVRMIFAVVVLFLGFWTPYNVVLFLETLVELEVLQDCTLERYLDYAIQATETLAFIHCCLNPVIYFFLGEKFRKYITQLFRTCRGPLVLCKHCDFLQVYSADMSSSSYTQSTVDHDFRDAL

mCCR7 = target: T2, mCCR7 (Mus musculus, UniProt P47774); assay: Chemotaxis of mouse splenocytes to mCCL19; format: cell-based; conditions: in serum; unit inferred
T2 construct: endogenous in cells; host or cells: mouse splenocytes (from the earlier reading's assay name)
T2 sequence (P47774 25-378): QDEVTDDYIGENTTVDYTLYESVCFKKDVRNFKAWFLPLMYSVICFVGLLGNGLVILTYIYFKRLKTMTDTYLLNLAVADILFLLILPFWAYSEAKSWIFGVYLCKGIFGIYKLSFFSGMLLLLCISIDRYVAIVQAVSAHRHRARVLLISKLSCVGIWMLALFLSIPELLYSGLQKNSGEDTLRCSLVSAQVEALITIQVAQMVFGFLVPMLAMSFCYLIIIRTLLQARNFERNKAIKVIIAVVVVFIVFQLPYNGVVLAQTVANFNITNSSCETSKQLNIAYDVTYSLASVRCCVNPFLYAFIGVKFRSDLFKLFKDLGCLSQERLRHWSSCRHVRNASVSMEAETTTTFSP

mCCR9 = target: T3, mCCR9 (Mus musculus, UniProt Q9WUT7); assay: Chemotaxis of mouse thymocytes to mCCL25; format: cell-based; conditions: in serum; unit inferred
T3 construct: endogenous in cells; host or cells: mouse thymocytes (from the earlier reading's assay name)
T3 sequence (Q9WUT7 1-369): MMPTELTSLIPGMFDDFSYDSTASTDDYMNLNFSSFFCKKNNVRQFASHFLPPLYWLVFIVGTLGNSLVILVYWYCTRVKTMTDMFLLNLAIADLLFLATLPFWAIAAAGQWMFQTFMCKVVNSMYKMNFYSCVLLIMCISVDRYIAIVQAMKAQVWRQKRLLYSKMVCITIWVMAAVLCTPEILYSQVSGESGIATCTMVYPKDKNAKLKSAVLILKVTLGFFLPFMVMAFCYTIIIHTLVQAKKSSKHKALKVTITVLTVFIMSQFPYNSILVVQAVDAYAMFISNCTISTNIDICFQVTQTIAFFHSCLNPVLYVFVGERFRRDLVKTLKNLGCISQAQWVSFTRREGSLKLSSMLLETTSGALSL

mCXCR4 = target: T4, mCXCR4 (Mus musculus, UniProt P70658); assay: Chemotaxis of mouse BaF3-WT to mCXCL12; format: cell-based; conditions: in serum; unit inferred
T4 construct: endogenous in cells; host or cells: mouse BaF3-WT cells (from the earlier reading's assay name)

[1] = Plasma concentrations at trough after s.c. q.d. dosing; format: in vivo; conditions: Balb/c, mouse, subcutaneous, 24 hours post final dose (day 5), mice
Procedure: (§1) For in vivo dosing, mice were dosed subcutaneously with Compound 1.136 once daily (s.c. q.d. in 1% HPMC) at 90 mg/kg unless stated otherwise, starting at day 0 of a study. The in vivo dose was predicted based on in vitro potency and the pharmacokinetic response to a single dose in mice. The minimum antagonist concentration (at trough) to fully cover a gradient-sensing chemoattractant receptor has been determined to correspond with the IC90 concentration (Schall, T. J., and A. E. Proudfoot. 2011. Overcoming hurdles in developing successful drugs targeting chemokine receptors. Nat Rev Immunol 11: 355-363).

[2] = test system: IL-36α-injected ears of Balb/c mice; assay: H&E histology and epidermal thickness of IL-36α-injected ears; format: in vivo, mouse
Procedure: as §1
For hematoxylin and eosin (H&E) staining, ear tissue was initially fixed in paraformaldehyde for paraffin embedding. Samples were processed by standard procedures. Epidermal thickness was measured as the average of 7 measurements made along the center third (the area containing the lesion) of the length of the H&E stained ear sections using Photoshop CS4 software (Adobe®)

[3] = test system: CD4 T cells, neutrophils and inflammatory dendritic cells within IL-36-treated skin; assay: Flow cytometry of leukocytes accumulating in IL-36-treated skin; format: in vivo, mouse; conditions: after 4 daily IL-36α ear injections; Compound 1.136 90 mg/kg/day s.c.; α-IL-17RA 200 μg/mouse/day i.p.; 90 mg/kg/day
Procedure: as §1
Flow cytometry of leukocytes. Ears or excised skin samples were digested in collagenase A and 1 U/ml DNAse I with agitation for 30 min at 37° C. Cells were then dislodged from skin, filtered through a […] sieve, washed and re-suspended in FACS buffer (PBS with 10% FBS) for analysis.
Directly conjugated Monoclonal antibodies were from R&D Systems (Minneapolis, Minn.), BioLegend (San Diego, Calif.), or eBioscience/ThermoFisher (San Diego, Calif.). CD45.2 (104) in AlexaFluor488, Ly6C (HK1.4) in PE, CD90.2 (30-H12) in Per CP-Cy5.5, TCRVγ4 (UC3-10A6) in PE-Cy7, TCRβ (H57-597) in APC, CD4 (GK1.5) in APC-eFluor-780, TCRγδ (GL3) in BV-421, LIVE/DEAD fixable Aqua stain (Molecular Probes, Eugene, Oreg.), CD11c (N418) in BV650, Ly6G (1A4) in BV711 and CD11b (M1/70) in BV785. Flow cytometry data were acquired with a Fortessa (BD Biosciences) cytometer and analyzed using FlowJo v10.2

T4 sequence (P70658 whole entry): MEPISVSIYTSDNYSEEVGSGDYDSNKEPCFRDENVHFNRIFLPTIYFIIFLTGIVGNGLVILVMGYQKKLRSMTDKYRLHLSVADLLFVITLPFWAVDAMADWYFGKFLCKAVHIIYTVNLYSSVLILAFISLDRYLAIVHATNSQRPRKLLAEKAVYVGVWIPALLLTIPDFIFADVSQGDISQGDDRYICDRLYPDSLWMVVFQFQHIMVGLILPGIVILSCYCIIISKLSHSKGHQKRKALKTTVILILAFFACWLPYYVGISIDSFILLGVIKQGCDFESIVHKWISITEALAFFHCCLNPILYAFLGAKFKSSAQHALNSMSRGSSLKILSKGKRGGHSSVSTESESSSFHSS

Structure (SMILES): CCC(C)(C)[C@@H](Nc1c(Nc2c(F)ccc3c2C(=O)N[C@H]3C)c(=O)c1=O)c1ccc(C)o1 [Compound 1.136]
- A2 for chemotaxis of mCCR4-transfected BaF3 cells to mCCL22 in serum (mCCR4): >10,000
- IC50 (mCCR7): 6 µM
- IC50 (mCCR9): > 10 µM
- IC50 (mCXCR4): > 10 µM
- concentration at 24 h ([1]; 30 mg/kg s.c. q.d. in 1% HPMC): 267 ± 18 ng/mL
- concentration at 24 h ([1]; 60 mg/kg s.c. q.d. in 1% HPMC): 323 ± 20 ng/mL
- concentration at 24 h ([1]; 90 mg/kg s.c. q.d. in 1% HPMC): 973 ± 19 ng/mL
- IL-36α-mediated epidermal thickness ([2]; H&E ear sections after 4 daily IL-36α treatments, Compound 1.136 90 mg/kg/day s.c., anti-IL17RA 200 μg/mouse/day IP, 90 mg/kg/day): significantly reduced IL-36α-mediated epidermal thickness; also recorded: substantially reduces epidermal thickness
- Stratum corneum and leukocyte infiltration in histology ([2]; H&E sections after 4 days of treatment, Compound 1.136 90 mg/kg daily): the stratum corneum remained intact and leukocyte infiltration was reduced
- Histology of IL-36α-injected ears: dermal, epidermal and overall skin thickness ([2]; H&E sections after 4 days of treatment, Compound 1.136 90 mg/kg daily, 90 mg/kg): reduced IL-36α-induced dermal, epidermal and overall skin thickness; also recorded: substantially improves histology of IL-36α-injected ears
- Accumulation of CD4+ T cells within IL-36-treated skin [3]: significantly reduced the accumulation; also recorded: significantly reduces accumulation
- Accumulation of inflammatory dendritic cells (iDC) within IL-36-treated skin [3]: significantly reduced the accumulation; also recorded: significantly reduces accumulation
- Accumulation of neutrophils within IL-36-treated skin [3]: significantly reduced the accumulation; also recorded: significantly reduces accumulation
